Laboratory results published in ChEMBL document CHEMBL5500393, “Discovery and Optimization of Novel SaFabI Inhibitors as Specific Therapeutic Agents for MRSA Infection” (J Med Chem, 2024).
In brackets after ≈: the same amount, converted by molar mass.

Assays:
[1] = biological target: T1, Enoyl-[acyl-carrier-protein] reductase [NADPH] FabI (Staphylococcus aureus) (UniProt Q6GI75); experiment: Inhibition of N-terminal his 6 tagged Staphylococcus aureus Fabi (1 to […] residues) expressed in Escherichia coli BL21 at 10 uM incubated for 30 mins in presence of NADPH by fluorescence based microplate reader analysis relative to control
T1 sequence (whole entry): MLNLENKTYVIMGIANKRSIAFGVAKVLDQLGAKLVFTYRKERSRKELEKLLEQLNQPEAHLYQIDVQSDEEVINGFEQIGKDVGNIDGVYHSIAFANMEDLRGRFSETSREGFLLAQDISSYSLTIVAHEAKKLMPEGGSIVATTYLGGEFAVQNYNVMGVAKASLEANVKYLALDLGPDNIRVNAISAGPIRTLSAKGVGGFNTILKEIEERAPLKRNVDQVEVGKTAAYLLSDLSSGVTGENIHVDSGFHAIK

[2] = biological target: T1, Enoyl-[acyl-carrier-protein] reductase [NADPH] FabI (Staphylococcus aureus); experiment: Inhibition of N-terminal his 6 tagged Staphylococcus aureus Fabi (1 to […] residues) expressed in Escherichia coli BL21 at 1 uM incubated for 30 mins in presence of NADPH by fluorescence based microplate reader analysis relative to control
Staphylococcus aureus [3] = experiment: Antimicrobial activity against […] Staphylococcus aureus ATCC33591 measured after 24 hrs by CLSI protocol based microdilution method; format: functional
Staphylococcus aureus [4] = experiment: Antimicrobial activity against […] Staphylococcus aureus ATCC43300 measured after 24 hrs by CLSI protocol based microdilution method; format: functional
Staphylococcus aureus [5] = experiment: Antimicrobial activity against […] Staphylococcus aureus USA300 measured after 24 hrs by CLSI protocol based microdilution method; format: functional
Staphylococcus aureus [6] = experiment: Antimicrobial activity against […] Staphylococcus aureus NRS271 measured after 24 hrs by CLSI protocol based microdilution method; format: functional
Staphylococcus aureus [7] = experiment: Antimicrobial activity against methicillin-susceptible Staphylococcus aureus ATCC29213 measured after 24 hrs by CLSI protocol based microdilution method; format: functional
Staphylococcus aureus [8] = experiment: Antimicrobial activity against methicillin-susceptible Staphylococcus aureus ATCC25923 measured after 24 hrs by CLSI protocol based microdilution method; format: functional
Enterococcus faecium = experiment: Antimicrobial activity against Enterococcus faecium ATCC19434 measured after 24 hrs by CLSI protocol based microdilution method; format: functional
Enterococcus faecalis = experiment: Antimicrobial activity against Enterococcus faecalis ATCC29212 measured after 24 hrs by CLSI protocol based microdilution method; format: functional
Pseudomonas aeruginosa = experiment: Antimicrobial activity against Pseudomonas aeruginosa PAO1 measured after 24 hrs by CLSI protocol based microdilution method; format: functional
Escherichia coli = experiment: Antimicrobial activity against Escherichia coli ATCC25922 measured after 24 hrs by CLSI protocol based microdilution method; format: functional
Acinetobacter baumannii = experiment: Antimicrobial activity against Acinetobacter baumannii ATCC19606 measured after 24 hrs by CLSI protocol based microdilution method; format: functional
Candida albicans = experiment: Antimicrobial activity against Candida albicans SC5314 measured after 48 hrs by CLSI protocol based microdilution method; format: functional

| Structure (SMILES) | inhibition [1] [%] | inhibition [2] [%] | MIC (Staphylococcus aureus [3]) [µg/mL] | MIC (Staphylococcus aureus [4]) [µg/mL] | MIC (Staphylococcus aureus [5]) [µg/mL] | MIC (Staphylococcus aureus [6]) [µg/mL] | MIC (Staphylococcus aureus [7]) [µg/mL] | MIC (Staphylococcus aureus [8]) [µg/mL] | MIC (Enterococcus faecium) [µg/mL] | MIC (Enterococcus faecalis) [µg/mL] | MIC (Pseudomonas aeruginosa) [µg/mL] | MIC (Escherichia coli) [µg/mL] | MIC (Acinetobacter baumannii) [µg/mL] | MIC (Candida albicans) [µg/mL] |
| --- | --- | --- | --- | --- | --- | --- | --- | --- | --- | --- | --- | --- | --- | --- |
| Cc1cccc(NC(=O)CCc2nc3ccccc3n2C)c1C | 10 | 4.5 | > 32 | > 32 | > 32 | > 32 | > 32 | > 32 | > 32 | > 32 | > 32 | > 32 | > 32 | > 32 |
| Oc1ccc2ccccc2c1SSc1c(O)ccc2ccccc12 | > 70 | – | – | – | – | – | – | – | – | – | – | – | – | – |
| O=c1sn(-c2cccc3ccccc23)c(=O)n1Cc1ccccc1 | > 70 | – | – | – | – | – | – | – | – | – | – | – | – | – |
| O=C1CC(c2nc3ccccc3[nH]2)CN1c1cccc2ccccc12 (stereo not given) | 15.4 | 3.2 | > 32 | > 32 | > 32 | > 32 | > 32 | > 32 | > 32 | > 32 | > 32 | > 32 | > 32 | > 32 |
| Cn1c(C(=O)NCc2ccccc2)nc2ccccc21 | 4.7 | 6.2 | > 32 | > 32 | > 32 | > 32 | > 32 | > 32 | > 32 | > 32 | > 32 | > 32 | > 32 | > 32 |
| Cc1c(Br)cccc1N1C[C@H](c2nc3ccccc3n2C)CC1=O | – | – | > 32 | > 32 | > 32 | > 32 | > 32 | > 32 | – | – | – | – | – | – |
| Cn1c(C2CC(=O)N(c3noc4ccccc34)C2)nc2ccccc21 (stereo not given) | 11.6 | 2.5 | > 32 | > 32 | > 32 | > 32 | > 32 | > 32 | > 32 | > 32 | > 32 | > 32 | > 32 | > 32 |
| COc1cccc(N2CC(c3nc4ccccc4n3C)CC2=O)c1OC (stereo not given) | 45.2 | 3.8 | > 32 | > 32 | > 32 | > 32 | > 32 | > 32 | > 32 | > 32 | > 32 | > 32 | > 32 | > 32 |
| Cn1c(C2CC(=O)N(c3ccccc3-c3ccccc3)C2)nc2ccccc21 (stereo not given) | 5.8 | 2.3 | > 32 | > 32 | > 32 | > 32 | > 32 | > 32 | > 32 | > 32 | > 32 | > 32 | > 32 | > 32 |
| Cn1c(CCC(=O)NCCNC(=O)Cc2ccccc2)nc2ccccc21 | 21.4 | 3.6 | > 32 | > 32 | > 32 | > 32 | > 32 | > 32 | > 32 | > 32 | > 32 | > 32 | > 32 | > 32 |
| Cn1c(C(=O)NCCC(=O)NCc2ccccc2)nc2ccccc21 | 8.6 | 5.7 | > 32 | > 32 | > 32 | > 32 | > 32 | > 32 | > 32 | > 32 | > 32 | > 32 | > 32 | > 32 |
| Cn1c(CCC(=O)NCCC(=O)NCc2ccccc2)nc2ccccc21 | 24.7 | 7.5 | > 32 | > 32 | > 32 | > 32 | > 32 | > 32 | > 32 | > 32 | > 32 | > 32 | > 32 | > 32 |
| Cn1c(C2CC(=O)N(c3ccc(Cl)cc3)C2)nc2ccccc21 (stereo not given) | 35.7 | 2.2 | > 32 | > 32 | > 32 | > 32 | > 32 | > 32 | > 32 | > 32 | > 32 | > 32 | > 32 | > 32 |
| Cc1cccc(NC(=O)c2nc3ccccc3n2C)c1C | 8.9 | 5.2 | > 32 | > 32 | > 32 | > 32 | > 32 | > 32 | > 32 | > 32 | > 32 | > 32 | > 32 | > 32 |
| O=C1C=CC(=O)c2ccccc21 | > 70 | – | – | – | – | – | – | – | – | – | – | – | – | – |
| Cc1cccc(NC(=O)CCNC(=O)c2nc3ccccc3n2C)c1C | 6.6 | 4.8 | > 32 | > 32 | > 32 | > 32 | > 32 | > 32 | > 32 | > 32 | > 32 | > 32 | > 32 | > 32 |
| Cn1ccc(N2CC(c3nc4ccccc4n3C)CC2=O)n1 (stereo not given) | 4.3 | 5.1 | > 32 | > 32 | > 32 | > 32 | > 32 | > 32 | > 32 | > 32 | > 32 | > 32 | > 32 | > 32 |
| Cn1c(C2CC(=O)N(c3ccccc3)C2)nc2ccccc21 (stereo not given) | 56.2 | 8.9 | > 32 | > 32 | > 32 | > 32 | > 32 | > 32 | > 32 | > 32 | > 32 | > 32 | > 32 | > 32 |
| Cc1cccc(C(=O)NCCNC(=O)c2nc3ccccc3n2C)c1C | 3.7 | 1.7 | > 32 | > 32 | > 32 | > 32 | > 32 | > 32 | > 32 | > 32 | > 32 | > 32 | > 32 | > 32 |
| CC(=O)c1ccc(N2CC(c3nc4ccccc4n3C)CC2=O)cc1Cl (stereo not given) | 3.8 | 5.5 | > 32 | > 32 | > 32 | > 32 | > 32 | > 32 | > 32 | > 32 | > 32 | > 32 | > 32 | > 32 |
| Cc1c(Br)cccc1N1CC(c2nc3ccccc3[nH]2)CC1=O (stereo not given) | 36.6 | 11.6 | > 32 | > 32 | > 32 | > 32 | > 32 | > 32 | > 32 | > 32 | > 32 | > 32 | > 32 | > 32 |
| O=C(N/N=C/c1cc(O)c(O)cc1O)c1cc2ccccc2cc1O | > 70 | – | – | – | – | – | – | – | – | – | – | – | – | – |
| COCCCOc1ccc(C)c(C[S+]([O-])c2nc3ccccc3[nH]2)n1 (stereo not given) | > 70 | – | – | – | – | – | – | – | – | – | – | – | – | – |
| CN(C)c1ccc2nc3c(C(=O)O)cc(O)c(O)c3[o+]c2c1 | > 70 | – | – | – | – | – | – | – | – | – | – | – | – | – |
| COc1cccc(OC)c1C(=O)N[C@@H]1C(=O)N2[C@@H]1SC(C)(C)[C@@H]2C(=O)O [METHICILLIN] | – | – | > 32 | > 32 | > 32 | > 32 | 2 (≈ 5.26 µM) | 2 (≈ 5.26 µM) | – | – | – | – | – | – |
| CCCCCC/C=C/CCCCCCCc1cccc(O)c1C(=O)O | > 70 | – | – | – | – | – | – | – | – | – | – | – | – | – |
| O=C1CC(c2nc3ccccc3[nH]2)CN1c1cccc(Cl)c1F (stereo not given) | 16.9 | 1.7 | > 32 | > 32 | > 32 | > 32 | > 32 | – | > 32 | > 32 | > 32 | > 32 | > 32 | > 32 |
